Test results as given in patent publication US20050234066A1, “Alpha substituted carboxylic acids” (Agouron Pharmaceuticals, Inc., priority 2004, published 2005).
pKi: −log10 of the molar value. Read-outs that look alike come from different tables or passages of the source.

How the values were obtained:
PPAR-γ = target: T1, PPAR-γ (Homo sapiens, UniProt P37231); experiment: Scintillation Proximity Assay (SPA), displacement of 3H labeled darglitazone; format: binding; details: 3H darglitazone displacement
T1 sequence (P37231 1-505): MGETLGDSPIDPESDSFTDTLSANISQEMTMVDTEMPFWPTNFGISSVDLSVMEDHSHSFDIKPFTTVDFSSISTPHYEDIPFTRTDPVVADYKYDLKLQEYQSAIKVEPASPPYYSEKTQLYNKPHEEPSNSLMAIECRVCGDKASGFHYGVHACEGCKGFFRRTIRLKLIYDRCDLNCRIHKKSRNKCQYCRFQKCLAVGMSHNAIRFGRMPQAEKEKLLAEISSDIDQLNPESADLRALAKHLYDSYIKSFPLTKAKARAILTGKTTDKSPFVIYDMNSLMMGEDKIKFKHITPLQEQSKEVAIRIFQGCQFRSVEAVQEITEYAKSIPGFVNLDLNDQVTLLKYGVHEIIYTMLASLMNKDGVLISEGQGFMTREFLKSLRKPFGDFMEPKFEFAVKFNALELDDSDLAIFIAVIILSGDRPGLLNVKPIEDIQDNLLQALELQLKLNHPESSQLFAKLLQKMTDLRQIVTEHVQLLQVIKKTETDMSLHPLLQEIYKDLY
Source text: Scintillatian Proximity Assay (SPA) Assays
In the SPA assay, 3H labeled darglitazone (for PPAR-γ) or GW2331 (for PPAR-α) is bound to the PPAR protein captured on SPA polylysine beads and generates radioactive count signal that can be detected by TopCounts (Packard). The PPAR-bound 3H labeled ligand can be displaced by an unlabeled compound. The Ki of the compound can be then determined by the extent of displacement at various compound concentrations. Reagents: • SPA polylysine beads, which can be purchased from Amersham Bioscience. • H labeled Darglitazone for PPAR-γ. • H labeled GW2331 for PPAR-α. • PPAR proteins. • Buffer—PBS, 10% glycerol, 14 mM beta-mercaptoethanol.

PPAR-α = target: T2, PPAR-α (Homo sapiens, UniProt Q07869); experiment: Scintillation Proximity Assay (SPA), displacement of 3H labeled GW2331; format: binding; details: 3H GW2331 displacement
T2 sequence (Q07869 1-468): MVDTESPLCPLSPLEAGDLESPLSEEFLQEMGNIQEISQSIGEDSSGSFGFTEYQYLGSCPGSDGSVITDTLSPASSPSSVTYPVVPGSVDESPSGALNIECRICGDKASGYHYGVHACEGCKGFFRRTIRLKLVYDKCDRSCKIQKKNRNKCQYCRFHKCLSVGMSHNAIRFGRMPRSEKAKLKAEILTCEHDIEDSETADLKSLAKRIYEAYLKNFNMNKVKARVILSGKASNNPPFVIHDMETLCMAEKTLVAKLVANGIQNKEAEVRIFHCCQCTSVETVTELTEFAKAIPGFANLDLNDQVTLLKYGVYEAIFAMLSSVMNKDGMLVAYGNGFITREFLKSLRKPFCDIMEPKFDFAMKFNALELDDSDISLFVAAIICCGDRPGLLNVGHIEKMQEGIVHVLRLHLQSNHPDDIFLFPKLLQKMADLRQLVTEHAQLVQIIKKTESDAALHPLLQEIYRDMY

Row | Structure (SMILES) | pKi (PPAR-γ; read-out: PPAR-gamma Ki) | pKi (PPAR-α; read-out: PPAR-alpha Ki) | pKi (PPAR-γ; PPAR-gamma Ki) | pKi (PPAR-α; PPAR-alpha Ki)
1 | Cc1oc(-c2cccc(C(F)(F)F)c2)nc1CCOc1ccc(CC2(C(=O)O)CCC2)cc1 [Example C-30] | 7.48 | 6.96 | – | –
2 | Cc1oc(-c2cccc(Cl)c2)nc1CCOc1ccc(CC2(C(=O)O)CCC2)cc1 [Example C-31] | 7.59 | 7.03 | – | –
3 | Cc1cccc(-c2nc(CCOc3ccc(CC4(C(=O)O)CCC4)cc3)c(C)o2)c1 [Example C-32] | 7.46 | 6.82 | – | –
4 | Cc1oc(-c2ccc(C(F)(F)F)cc2)nc1CCOc1ccc(CC2(C(=O)O)CCC2)cc1 [Example C-33] | 7.30 | 8.00 | – | –
5 | O=C(O)C1(Oc2ccc(OCc3nc(-c4ccccc4)oc3-c3ccccc3)cc2)CCC1 [Example C-36] | 5.77 | 4.68 | – | –
6 | Cc1oc(-c2ccccc2)nc1CCOc1ccc(OC2(C(=O)O)CCC2)cc1 [Example C-40] | 5.43 | 6.15 | – | –
7 | Cc1oc(-c2ccccc2)nc1COc1ccc(OC2(C(=O)O)CCC2)cc1 [Example C-42] | 4.48 | 4.89 | – | –
8 | CCOC(c1ccc(OCCc2nc(-c3ccccc3)oc2C)nc1)C1(C(=O)O)CCC1 (stereo not shown) [Example C-45] | 6.66 | 5.11 | – | –
9 | Cc1oc(-c2ccccc2)nc1CCOc1ccc(CC2(C(=O)O)CCCC2)cn1 [Example C-46] | 5.70 | 5.46 | – | –
10 | Cc1cccc(-c2nc(CCOc3ccc(CC4(C(=O)O)CCCO4)nc3)c(C)o2)c1 (stereo not shown) [Example C-50] | 7.37 | 5.96 | – | –
11 | Cc1sc(-c2ccccc2)nc1CCOc1ccc(CC2(C(=O)O)CCCO2)nc1 (stereo not shown) [Example C-51] | 6.74 | 5.54 | – | –
12 | Cc1oc(-c2ccc(Cl)cc2)nc1CCOc1ccc(CC2(C(=O)O)CCCO2)nc1 (stereo not shown) [Example C-52] | 6.52 | 6.82 | – | –
13 | COc1ccc(-c2nc(CCOc3ccc(CC4(C(=O)O)CCCO4)nc3)c(C)o2)cc1 (stereo not shown) [Example C-53] | 7.03 | 6.19 | – | –
14 | COc1cccc(-c2nc(CCOc3ccc(CC4(C(=O)O)CCCO4)nc3)c(C)o2)c1 (stereo not shown) [Example C-54] | – | – | 7.70 | 5.92
15 | Cc1oc(-c2ccccc2)nc1CCOc1ccc(CC2(C(=O)O)CCCCO2)nc1 (stereo not shown) [Example C-57] | 5.96 | 5.74 | – | –
16 | Cc1oc(-c2ccc(C#N)cc2)nc1CCOc1ccc(CC2(C(=O)O)CCCO2)cn1 (stereo not shown) [Example C-61] | 6.51 | 6.62 | – | –
17 | CN(CCOc1ccc(CC2(C(=O)O)CCCO2)cn1)c1nc2ccccc2o1 (stereo not shown) [Example C-69] | 5.96 | 5.60 | – | –
18 | Cc1oc(-c2ccccc2)nc1CCCc1ccc(CC2(C(=O)O)CCCO2)cn1 (stereo not shown) [Example C-74] | 6.19 | 6.05 | – | –
19 | Cc1oc(-c2ccccc2)nc1CCOc1ncc(CC2(C(=O)O)CCCO2)cn1 (stereo not shown) [Example C-76] | 5.64 | 5.14 | – | –
20 | Cc1oc(-c2ccccc2)nc1CCOc1cnc(CC2(C(=O)O)CCCO2)cn1 (stereo not shown) [Example C-77] | – | 5.54 | 6.82 | –
21 | Cc1oc(-c2ccccc2)nc1CCOc1ccc(CC2(C(=O)O)CCCO2)cc1 (stereo not shown) [Example C-78] | 8.22 | 7.82 | – | –
22 | Cc1oc(-c2cccc(N(C)C)c2)nc1CCOc1ccc(CC2(C(=O)O)CCCO2)cc1 (stereo not shown) [Example C-79] | 8.15 | 7.82 | – | –
23 | Cc1oc(-c2ccc(C#N)cc2)nc1CCOc1ccc(CC2(C(=O)O)CCCO2)cc1 (stereo not shown) [Example C-80] | 7.21 | 7.28 | – | –
24 | Cc1oc(-c2ccc(C(N)=O)cc2)nc1CCOc1ccc(CC2(C(=O)O)CCCO2)cc1 (stereo not shown) [Example C-81] | 7.82 | 6.12 | – | –
25 | Cc1ccc(-c2nc(CCOc3ccc(CC4(C(=O)O)CCCO4)cc3)c(C)o2)cc1 (stereo not shown) [Example C-83] | 8.10 | 8.40 | – | –
26 | COc1ccc(-c2nc(CCOc3ccc(CC4(C(=O)O)CCCO4)cc3)c(C)o2)cc1 (stereo not shown) [Example C-84] | 7.68 | 7.19 | – | –
27 | COc1cccc(-c2nc(CCOc3ccc(CC4(C(=O)O)CCCO4)cc3)c(C)o2)c1 (stereo not shown) [Example C-85] | 8.40 | 7.89 | – | –
28 | Cc1oc(-c2cccc(Cl)c2)nc1CCOc1ccc(CC2(C(=O)O)CCCO2)cc1 (stereo not shown) [Example C-86] | 8.30 | 7.89 | – | –
29 | Cc1oc(-c2cccc(C(F)(F)F)c2)nc1CCOc1ccc(CC2(C(=O)O)CCCO2)cc1 (stereo not shown) [Example C-87] | 7.92 | 7.60 | – | –
